This is an account of results in patent US12559509B1, “Citrate coordination complex of an orally-delivered beta-lactamase inhibitor and uses thereof” (priority 2023, dated 2026).

Common to all, as to assay type: physicochemical
Data set [1] in a line: Dynamic Vapor Sorption (DVS) analysis. The settings on record: for solid form after DVS cycle, by XRPD: 0% RH to 98% RH and back to 0% RH; for weight gain: above 85% RH (up to 98% RH); for weight gain with increasing RH: between 0% RH and 85% RH. On the procedure: Moisture sorption/desorption data were collected on a DVS-intrinsic vapor sorption analyzer (Surface Measurement Systems NA, Allentown, PA, USA) and operated with DVS-intrinsic control software (Version 1.0.5.1). Samples were not dried prior to analysis. Sorption and desorption data were collected over a range from 5% to 98% relative humidity (RH) via 10% RH increments under a nitrogen purge. The equilibrium criterion used for analysis was less than 0.005% weight change in 10 min with a maximum equilibration time of 3 h.
The DVS isotherm of Form B is qualitatively similar to that of Form A. Form B lost 0.1 wt % upon equilibration at ˜0% RH.

Data set [2] is described as follows: Chemical stability of drug substance controls and binary blend, HPLC purity.
The nature of data set [3]: Excipient compatibility at 50° C., HPLC purity. On the procedure:
The compatibility of the drug substances with select functional excipients was confirmed by comparing the assay and purity of samples stored at 50° C. for 5 weeks to the drug substance control samples. The excipients tested included: microcrystalline cellulose (binder); magnesium stearate (lubricant); sodium starch glycolate (disintegrant); and colloidal silica (glidant). […] The samples were transferred to a 3-dram glass vial with a tight-fitting cap and placed in a 50° C. oven.

Data set [4] in a line: Dissolution testing (Apparatus II method) of capsule prototypes. As to conditions: FDC capsule with ceftibuten dihydrate, at 60 minutes; 900 mL pH 6.8 50 mM sodium bicarbonate buffer, 75 RPM paddle. The procedure: In some embodiments, the citrate coordination complex allows for the development of a dry powder, immediate release formulation as compared to other forms, such as the ethanolate, which could not be formulated directly as an immediate release formulation. […] Dissolution testing (Apparatus II method) was performed using 900 mL of pH 6.8 50 mM sodium bicarbonate buffer solution and a 75 RPM paddle speed.

Counter-ions that a name gives are not always drawn.

Turning to `CCC(=O)N[C@@H](Cc1cccc(C(=O)OCOC(=O)C(CC)CC)c1O)B(O)O.O=C(O)CC(O)(CC(=O)O)C(=O)O` [(R)-(2-(3-((((2-ethylbutanoyl)oxy)methoxy)carbonyl)-2-hydroxyphenyl)-1-propionamidoethyl)boronic acid citrate], the “solid form after DVS cycle, by XRPD” value in data set [1] is “XRPD of the sample matched that of the material before DVS analysis”. The “Change In Mass (%)-ref, Desorption” value in data set [1] (Target RH 0.0 %) is reported as −0.17%; in data set [1] (Target RH 5.0 %) it was −0.13%; in data set [1] (Target RH 15.0 %), −0.05%; in data set [1] (Target RH 25.0 %) it was 0.06%; in data set [1] (Target RH 35.0 %), 0.13%; in data set [1] (Target RH 45.0 %), 0.25%. For the same molecule, the “Change In Mass (%)-ref, Desorption” value in data set [1] (Target RH 55.0 %) came to 0.43%; in data set [1] (Target RH 65.0 %) it was 0.56%; in data set [1] (Target RH 85.0 %) it was 1.11%; in data set [1] (Target RH 95.0 %), 11.32%; in data set [1] (Target RH 98.0 %), 11.18%; in data set [1] (Target RH […]) it was 0.79%. The “Change In Mass (%)-ref, Sorption” value in data set [1] (Target RH 0.0 %) is on record as −0.07%; in data set [1] (Target RH 5.0 %) it was −0.05%; in data set [1] (Target RH 15.0 %), 0.04%; in data set [1] (Target RH 25.0 %), 0.13%; in data set [1] (Target RH 35.0 %), 0.17%; in data set [1] (Target RH 45.0 %) it was 0.31%. Further, the “Change In Mass (%)-ref, Sorption” value in data set [1] (Target RH 55.0 %) is recorded as 0.41%; in data set [1] (Target RH 65.0 %) it was 0.53%; in data set [1] (Target RH 85.0 %), 0.98%; in data set [1] (Target RH 95.0 %), 8.47%; in data set [1] (Target RH 98.0 %) it was 11.18%; in data set [1] (Target RH […]), 0.66%. Besides, the “Change In Mass (%)-ref, Hysteresis” value in data set [1] (Target RH 5.0 %) was −0.07%; in data set [1] (Target RH 15.0 %), −0.08%; in data set [1] (Target RH 25.0 %) it was −0.07%; in data set [1] (Target RH 35.0 %), −0.04%; in data set [1] (Target RH 45.0 %), −0.06%; in data set [1] (Target RH 55.0 %) it was 0.02%. Besides, the “Change In Mass (%)-ref, Hysteresis” value worked out at 0.03% in data set [1] (Target RH 65.0 %), 0.13% in data set [1] (Target RH 85.0 %), 2.85% in data set [1] (Target RH 95.0 %) and 0.12% in data set [1] (Target RH […]). Further, in data set [1], the weight gain was 11.2%. The “weight lost upon equilibration” value in data set [1] (at ˜0% RH) stood at 0.1 wt %. Moreover, the “weight gain with increasing RH” value in data set [1] was approximately 1.0 wt %.
With `CCC(=O)N[C@@H](Cc1cccc(C(=O)OCOC(=O)C(CC)CC)c1O)B1OC(=O)C(CC(=O)O)(CC(=O)O)O1` [(R)-(2-(3-((((2-ethylbutanoyl)oxy)methoxy)carbonyl)-2-hydroxyphenyl)-1-propionamidoethyl)boronic acid citrate], in data set [1], the “solid form after DVS cycle, by XRPD” value was “remained crystalline, as Form A”. Also, the “hygroscopicity (in words)” value in data set [1] (0-85% RH) is listed as “non-hygroscopic”. In addition, the “Change In Mass (%)-ref, Desorption” value in data set [1] (Target RH 0.0 %) is −0.023%; in data set [1] (Target RH 5.0 %) it was 0.012%; in data set [1] (Target RH 15.0 %) it was 0.065%; in data set [1] (Target RH 25.0 %) it was 0.119%; in data set [1] (Target RH 35.0 %) it was 0.167%; in data set [1] (Target RH 45.0 %), 0.218%. The “Change In Mass (%)-ref, Desorption” value in data set [1] (Target RH 55.0 %) worked out at 0.279%; in data set [1] (Target RH 65.0 %), 0.356%; in data set [1] (Target RH 85.0 %) it was 0.604%; in data set [1] (Target RH 95.0 %) it was 4.054%; in data set [1] (Target RH 98.0 %) it was 4.006%; in data set [1] (Target RH […]) it was 0.457%. The “Change In Mass (%)-ref, Sorption” value in data set [1] (Target RH 0.0 %) turned out to be 0.000%; in data set [1] (Target RH 5.0 %), 0.019%; in data set [1] (Target RH 15.0 %), 0.073%; in data set [1] (Target RH 25.0 %) it was 0.121%; in data set [1] (Target RH 35.0 %), 0.159%; in data set [1] (Target RH 45.0 %), 0.205%. Also, the “Change In Mass (%)-ref, Sorption” value in data set [1] (Target RH 55.0 %) was 0.259%; in data set [1] (Target RH 65.0 %), 0.318%; in data set [1] (Target RH 85.0 %) it was 0.502%; in data set [1] (Target RH 95.0 %), 3.289%; in data set [1] (Target RH 98.0 %) it was 4.006%; in data set [1] (Target RH […]), 0.401%. Also, the “Change In Mass (%)-ref, Hysteresis” value was −0.006% in data set [1] (Target RH 5.0 %); −0.008% in data set [1] (Target RH 15.0 %); −0.003% in data set [1] (Target RH 25.0 %); 0.008% in data set [1] (Target RH 35.0 %); 0.013% in data set [1] (Target RH 45.0 %); 0.019% in data set [1] (Target RH 55.0 %). For the same molecule, the “Change In Mass (%)-ref, Hysteresis” value in data set [1] (Target RH 65.0 %) was 0.038%; in data set [1] (Target RH 85.0 %), 0.102%; in data set [1] (Target RH 95.0 %), 0.764%; in data set [1] (Target RH […]), 0.056%. In data set [1], this molecule showed a weight gain of 4.0%. Further, the “weight gain with increasing RH” value in data set [1] was 0.5 wt %.
In the case of `Nc1nc(/C(=C/CC(=O)O)C(=O)N[C@@H]2C(=O)N3C(C(=O)O)=CCS[C@H]23)cs1` [Ceftibuten dihydrate, reference compound], the “degradation (in words)” value in data set [2] (controls and binary blend, 25° C. and 40° C., through 12 weeks) is recorded as “temperature dependent degradation”. Also, the “HPLC purity (% peak area)” value in data set [2] (drug substance control, 25° C. Storage, 0 weeks) worked out at 98.6%; in data set [2] (drug substance control, 25° C. Storage, 5 weeks) it was 98.6%; in data set [2] (drug substance control, 25° C. Storage, 8 weeks) it was 98.6%; in data set [2] (drug substance control, 25° C. Storage, 12 weeks) it was 98.4%; in data set [2] (drug substance control, 40° C. Storage, 0 weeks), 98.6%; in data set [2] (drug substance control, 40° C. Storage, 5 weeks), 98.4%. The “HPLC purity (% peak area)” value in data set [2] (drug substance control, 40° C. Storage, 8 weeks) is listed as 96.7%; in data set [2] (drug substance control, 40° C. Storage, 12 weeks), 92.8%; in data set [2] (in binary Blend, 25° C. Storage, 0 weeks), 98.4%; in data set [2] (in binary Blend, 25° C. Storage, 5 weeks) it was 98.6%; in data set [2] (in binary Blend, 25° C. Storage, 8 weeks) it was 98.3%; in data set [2] (in binary Blend, 25° C. Storage, 12 weeks), 96.8%. The “HPLC purity (% peak area)” value is recorded as 97.5% in data set [2] (in binary Blend, 40° C. Storage, 0 weeks); 94.8% in data set [2] (in binary Blend, 40° C. Storage, 8 weeks); 93.7% in data set [2] (in binary Blend, 40° C. Storage, 12 weeks). Further, the entries for the “HPLC Purity (Peak Area %) Ceftibuten” value in data set [3] (2 weeks) and in data set [3] (5 weeks) were 99.2% and 94.8%, respectively.
In the case of `CCOB1Oc2c(cccc2C(=O)OCOC(=O)C(CC)CC)C[C@@H]1NC(=O)CC` [Compound 1 Ethanolate, ((2-ethylbutanoyl)oxy)methyl (R)-2-ethoxy-3-propionamido-3,4-dihydro-2H-benzo[e][1,2]oxaborinine-8-carboxylate], in data set [4], the “release of the drug substance” value is less than 40%.
